The results in this text go back to patent publication US20090226392A1, “Phosphate-Binding Polymers for Oral Administration” (priority 1993, published 2009).

A short description of this test: Phosphate binding test: polymer stirred in phosphate containing solution at pH 7 for 3 hours. As for the experimental part:
Candidate polymers were tested by stirring them in a phosphate containing solution at pH 7 for 3 hours. The solution was designed to mimic the conditions present in the small intestine.
The pH was adjusted to pH 7, once at the start of the test and again at the end of the test, using either aqueous NaOH or HCl. After 3 hours the polymer was filtered off and the residual phosphate concentration in the test solution was determined spectrophotometrically. The difference between the initial phosphate concentration and the final concentration was used to determine the amount of phosphate bound to the polymer.

Regarding `CC(O)C(=O)[O-].CC(O)C(=O)[O-].[Ca+2]` (centres unmarked) [Calcium Lactate], where the note is “Table 2, other materials, pH 7, 3 hours, residual solution phosphate ~5 mM”, the “Phosphate Bound” value was found to be 2.4 meq/g.

In the case of `[Ca+2].[Cl-].[Cl-]` [Calcium Chloride], the “Phosphate Bound” value (pH 7) is 4.0 meq/g.
